From patent publication US12258327B2, “5-membered heteroaryl-containing aminopyridine compounds as EGFR inhibitors” (YUHAN CORPORATION, priority 2021, dated 2025)
Read-outs that look alike come from different tables or passages of the source.

Columns and labels:
EGFR L858R/C797S = EGFR L858R/C797S (Homo sapiens, UniProt P00533, C797S/L858R); experiment: Biochemical EGFR kinase assay (Lance Ultra TR-FRET), double mutant L858R/C797S
Method in brief: (§1)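 Step 1: compound in kinase buffer, 0.003–10 μM. Step 2: kinase reaction 1 h at room temperature. Step 4: TR-FRET read at 615/665 nm; IC50 calculated.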

EGFR del19/C797S = EGFR del19/C797S (Homo sapiens, UniProt P00533, C797S/DEL746-750); experiment: Biochemical EGFR kinase assay (Lance Ultra TR-FRET), double mutant del19/C797S
Method in brief: as §1

EGFR wildtype (WT) = EGFR wildtype (WT) (Homo sapiens, UniProt P00533); experiment: Biochemical EGFR kinase assay (Lance Ultra TR-FRET), wildtype
Method in brief: as §1

EGFR del19/T790M/C797S = EGFR del19/T790M/C797S (Homo sapiens, UniProt P00533, C797S/DEL746-750/T790M); experiment: Biochemical EGFR kinase assay (Lance Ultra TR-FRET), triple mutant del19/T790M/C797S
Method in brief: as §1

EGFR L858R/T790M/C797S = EGFR L858R/T790M/C797S (Homo sapiens, UniProt P00533, C797S/L858R/T790M); experiment: Biochemical EGFR kinase assay (Lance Ultra TR-FRET), triple mutant L858R/T790M/C797S
Method in brief: as §1

[1] = IC50 L858R/C797S (nM) 100 μM ATP, 100 μM ATP
[2] = IC50 del19/C797S (nM) 100 μM ATP, 100 μM ATP
[3] = IC50 WT (nM) 100 μM ATP, 100 μM ATP
[4] = IC50 del19/T790M/C797S (nM) 100 μM ATP, 100 μM ATP
[5] = IC50 L858R/T790M/C797S (nM) 100 μM ATP, 100 μM ATP
[6] = read-out: IC50 L858R/C797S (nM) 100 μM ATP, 100 μM ATP
[7] = read-out: IC50 del19/C797S (nM) 100 μM ATP, 100 μM ATP
[8] = read-out: IC50 WT (nM) 100 μM ATP, 100 μM ATP
[9] = read-out: IC50 del19/T790M/C797S (nM) 100 μM ATP, 100 μM ATP
[10] = read-out: IC50 L858R/T790M/C797S (nM) 100 μM ATP, 100 μM ATP
[11] = Km ATP, read-out: IC50 L858R/C797S (nM) Km ATP
[12] = Km ATP, read-out: IC50 del19/C797S (nM) Km ATP
[13] = Km ATP, read-out: IC50 WT (nM) Km ATP
[14] = Km ATP, read-out: IC50 del19/T790M/C797S (nM) Km ATP
[15] = Km ATP, read-out: IC50 L858R/T790M/C797S (nM) Km ATP

Sequence of EGFR L858R/T790M/C797S (P00533 25-1210 T790M/C797S/L858R): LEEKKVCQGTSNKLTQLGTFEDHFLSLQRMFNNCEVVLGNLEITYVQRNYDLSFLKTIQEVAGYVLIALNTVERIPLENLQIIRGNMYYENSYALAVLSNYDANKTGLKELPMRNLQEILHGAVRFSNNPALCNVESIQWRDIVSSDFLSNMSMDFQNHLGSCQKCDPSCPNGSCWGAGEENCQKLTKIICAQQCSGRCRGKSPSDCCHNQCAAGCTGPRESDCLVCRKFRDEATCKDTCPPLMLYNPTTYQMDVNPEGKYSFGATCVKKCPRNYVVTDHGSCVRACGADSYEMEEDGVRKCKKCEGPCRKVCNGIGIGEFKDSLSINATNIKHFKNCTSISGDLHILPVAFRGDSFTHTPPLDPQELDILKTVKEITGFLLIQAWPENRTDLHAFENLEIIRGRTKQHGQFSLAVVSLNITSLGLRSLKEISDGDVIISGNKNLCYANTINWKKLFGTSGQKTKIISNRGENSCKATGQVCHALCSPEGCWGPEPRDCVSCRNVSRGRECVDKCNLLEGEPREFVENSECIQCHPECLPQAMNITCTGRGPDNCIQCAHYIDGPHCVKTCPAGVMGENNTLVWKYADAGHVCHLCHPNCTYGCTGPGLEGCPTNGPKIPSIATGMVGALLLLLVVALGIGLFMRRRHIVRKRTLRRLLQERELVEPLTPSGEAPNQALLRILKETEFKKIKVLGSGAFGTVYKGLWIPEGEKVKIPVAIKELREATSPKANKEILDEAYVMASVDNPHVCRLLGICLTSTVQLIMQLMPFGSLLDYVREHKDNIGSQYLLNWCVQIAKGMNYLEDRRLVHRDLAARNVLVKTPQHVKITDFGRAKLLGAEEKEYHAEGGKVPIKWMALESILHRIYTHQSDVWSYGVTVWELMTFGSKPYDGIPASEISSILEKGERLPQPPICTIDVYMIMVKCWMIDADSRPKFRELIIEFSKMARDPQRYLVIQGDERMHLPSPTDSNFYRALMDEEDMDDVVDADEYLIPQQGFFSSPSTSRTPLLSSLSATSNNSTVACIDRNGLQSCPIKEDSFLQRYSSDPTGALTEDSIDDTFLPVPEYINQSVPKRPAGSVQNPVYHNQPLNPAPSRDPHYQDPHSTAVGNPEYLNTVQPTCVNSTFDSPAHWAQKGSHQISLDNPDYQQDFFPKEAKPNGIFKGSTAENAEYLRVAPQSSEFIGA
Sequence of EGFR wildtype (WT) (P00533 25-1210): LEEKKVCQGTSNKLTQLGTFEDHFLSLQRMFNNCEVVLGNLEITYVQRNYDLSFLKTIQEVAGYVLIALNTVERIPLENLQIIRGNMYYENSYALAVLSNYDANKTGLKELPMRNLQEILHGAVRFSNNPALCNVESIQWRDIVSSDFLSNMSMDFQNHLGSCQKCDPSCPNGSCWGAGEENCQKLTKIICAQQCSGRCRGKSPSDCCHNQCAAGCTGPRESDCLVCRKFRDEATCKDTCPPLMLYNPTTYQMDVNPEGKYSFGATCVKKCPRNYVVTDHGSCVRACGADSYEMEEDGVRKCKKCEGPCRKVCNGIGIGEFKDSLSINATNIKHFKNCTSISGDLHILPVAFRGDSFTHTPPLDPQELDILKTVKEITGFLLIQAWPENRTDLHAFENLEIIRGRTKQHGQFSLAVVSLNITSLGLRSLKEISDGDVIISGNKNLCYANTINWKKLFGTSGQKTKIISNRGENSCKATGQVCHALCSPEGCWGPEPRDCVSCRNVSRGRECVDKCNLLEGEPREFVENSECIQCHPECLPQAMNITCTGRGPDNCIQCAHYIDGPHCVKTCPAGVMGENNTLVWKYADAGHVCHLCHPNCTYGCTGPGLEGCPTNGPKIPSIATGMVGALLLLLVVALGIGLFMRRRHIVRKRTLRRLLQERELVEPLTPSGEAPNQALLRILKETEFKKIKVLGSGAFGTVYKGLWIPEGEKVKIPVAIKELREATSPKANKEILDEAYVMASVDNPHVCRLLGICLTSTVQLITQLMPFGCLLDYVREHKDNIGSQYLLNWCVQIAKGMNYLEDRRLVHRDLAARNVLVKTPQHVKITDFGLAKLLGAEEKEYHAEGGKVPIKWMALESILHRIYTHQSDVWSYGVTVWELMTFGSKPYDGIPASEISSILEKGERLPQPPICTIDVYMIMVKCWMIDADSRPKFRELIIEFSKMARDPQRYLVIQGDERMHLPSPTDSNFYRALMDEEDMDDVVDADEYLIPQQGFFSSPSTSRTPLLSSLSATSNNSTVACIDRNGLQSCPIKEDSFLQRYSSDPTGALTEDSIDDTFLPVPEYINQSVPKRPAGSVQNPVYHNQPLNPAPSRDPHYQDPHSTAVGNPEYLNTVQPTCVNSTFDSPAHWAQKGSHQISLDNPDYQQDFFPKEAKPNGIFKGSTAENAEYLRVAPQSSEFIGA
Sequence of EGFR L858R/C797S (P00533 25-1210 C797S/L858R): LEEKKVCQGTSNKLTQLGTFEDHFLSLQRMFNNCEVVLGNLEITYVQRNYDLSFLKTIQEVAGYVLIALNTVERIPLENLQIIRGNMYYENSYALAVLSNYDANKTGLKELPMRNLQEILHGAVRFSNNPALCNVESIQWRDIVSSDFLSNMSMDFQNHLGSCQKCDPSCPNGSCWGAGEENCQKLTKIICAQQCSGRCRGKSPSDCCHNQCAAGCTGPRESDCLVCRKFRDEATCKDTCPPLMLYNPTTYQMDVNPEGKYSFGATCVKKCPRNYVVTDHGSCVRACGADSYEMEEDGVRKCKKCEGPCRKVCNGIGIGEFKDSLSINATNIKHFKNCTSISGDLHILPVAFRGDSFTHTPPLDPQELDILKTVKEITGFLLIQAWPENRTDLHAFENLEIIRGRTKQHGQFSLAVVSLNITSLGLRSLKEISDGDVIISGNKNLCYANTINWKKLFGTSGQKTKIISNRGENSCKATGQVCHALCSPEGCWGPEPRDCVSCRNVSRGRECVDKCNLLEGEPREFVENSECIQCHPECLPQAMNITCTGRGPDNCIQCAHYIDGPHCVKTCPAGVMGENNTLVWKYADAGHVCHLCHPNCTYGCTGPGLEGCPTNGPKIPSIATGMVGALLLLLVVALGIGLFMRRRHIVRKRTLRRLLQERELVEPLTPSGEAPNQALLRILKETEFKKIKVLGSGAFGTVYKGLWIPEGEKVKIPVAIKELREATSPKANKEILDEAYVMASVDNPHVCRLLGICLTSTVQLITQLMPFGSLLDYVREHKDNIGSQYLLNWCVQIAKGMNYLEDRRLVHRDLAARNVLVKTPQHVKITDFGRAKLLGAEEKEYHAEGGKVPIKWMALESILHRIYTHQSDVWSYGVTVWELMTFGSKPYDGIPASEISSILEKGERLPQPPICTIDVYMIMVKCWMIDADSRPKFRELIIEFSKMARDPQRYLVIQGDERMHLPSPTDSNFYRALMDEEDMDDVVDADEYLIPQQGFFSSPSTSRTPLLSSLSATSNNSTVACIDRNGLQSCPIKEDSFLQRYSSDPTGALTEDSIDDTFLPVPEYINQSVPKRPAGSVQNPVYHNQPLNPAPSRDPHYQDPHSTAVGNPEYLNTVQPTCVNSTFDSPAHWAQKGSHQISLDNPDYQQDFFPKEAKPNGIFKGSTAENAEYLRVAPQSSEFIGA
Sequence of EGFR del19/C797S (P00533 with tags, fused parts or gaps DEL746-750/C797S): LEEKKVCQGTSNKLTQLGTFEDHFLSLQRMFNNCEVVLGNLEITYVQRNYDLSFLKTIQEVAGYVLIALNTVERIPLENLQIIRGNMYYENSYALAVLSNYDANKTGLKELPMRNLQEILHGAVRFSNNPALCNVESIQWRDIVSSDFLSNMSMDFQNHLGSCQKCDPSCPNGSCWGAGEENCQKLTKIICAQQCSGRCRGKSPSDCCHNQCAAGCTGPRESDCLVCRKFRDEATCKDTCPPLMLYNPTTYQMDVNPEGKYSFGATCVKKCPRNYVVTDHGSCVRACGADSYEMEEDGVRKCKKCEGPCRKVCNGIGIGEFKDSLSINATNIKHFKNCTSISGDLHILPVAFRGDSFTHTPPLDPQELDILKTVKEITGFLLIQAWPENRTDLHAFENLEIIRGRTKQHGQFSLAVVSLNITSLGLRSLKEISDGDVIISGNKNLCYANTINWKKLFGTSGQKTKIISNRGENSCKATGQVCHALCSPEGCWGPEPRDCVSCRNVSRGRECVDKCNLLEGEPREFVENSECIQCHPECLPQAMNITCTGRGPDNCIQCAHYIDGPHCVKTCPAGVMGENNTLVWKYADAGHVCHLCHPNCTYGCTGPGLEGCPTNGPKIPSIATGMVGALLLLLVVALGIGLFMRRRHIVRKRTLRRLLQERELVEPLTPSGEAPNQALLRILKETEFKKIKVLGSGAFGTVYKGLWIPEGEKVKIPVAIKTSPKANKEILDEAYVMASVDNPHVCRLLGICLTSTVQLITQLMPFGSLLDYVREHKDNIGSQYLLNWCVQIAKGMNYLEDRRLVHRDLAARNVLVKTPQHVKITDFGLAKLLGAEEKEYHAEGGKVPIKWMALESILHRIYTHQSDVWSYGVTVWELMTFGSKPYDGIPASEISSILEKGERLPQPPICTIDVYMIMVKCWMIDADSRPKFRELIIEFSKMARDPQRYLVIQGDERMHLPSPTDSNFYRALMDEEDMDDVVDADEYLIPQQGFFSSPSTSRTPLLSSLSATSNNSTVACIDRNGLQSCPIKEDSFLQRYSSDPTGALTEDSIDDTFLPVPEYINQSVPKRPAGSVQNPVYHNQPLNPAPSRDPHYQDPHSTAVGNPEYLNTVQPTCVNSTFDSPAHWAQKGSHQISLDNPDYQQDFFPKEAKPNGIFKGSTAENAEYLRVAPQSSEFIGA

IC50 (EGFR L858R/C797S; [1]) [nM] | IC50 (EGFR del19/C797S; [2]) [nM] | IC50 (EGFR wildtype (WT); [3]) [nM] | IC50 (EGFR del19/T790M/C797S; [4]) [nM] | IC50 (EGFR L858R/T790M/C797S; [5]) [nM] | IC50 (EGFR L858R/C797S; [11]) [nM] | IC50 (EGFR del19/C797S; [12]) [nM] | IC50 (EGFR wildtype (WT); [13]) [nM] | IC50 (EGFR del19/T790M/C797S; [14]) [nM] | IC50 (EGFR L858R/T790M/C797S; [15]) [nM] | SMILES | IC50 (EGFR L858R/C797S; [6]) [nM] | IC50 (EGFR del19/C797S; [7]) [nM] | IC50 (EGFR wildtype (WT); [8]) [nM] | IC50 (EGFR del19/T790M/C797S; [9]) [nM] | IC50 (EGFR L858R/T790M/C797S; [10]) [nM]
0.8 | 0.7 | 58.1 | 0.5 | 0.5 |  |  |  |  |  | Cn1ccc(-c2cnc(Nc3ccnc(-c4cnn(S(=O)(=O)C5CC5)c4)n3)cc2N[C@H]2CC[C@@H](O)CC2)n1 [Example 79, (1s,4s)-4-((2-((2-(1-(Cyclopropylsulfonyl)-1H-pyrazol-4-yl)pyrimidin-4-yl)amino)-5-(1-methyl-1H-pyrazol-3-yl)pyridin-4-yl)amino)cyclohexan-1-ol] |  |  |  |  | 
1.4 | 1.2 | 214 | 0.7 | 0.8 |  |  |  |  |  | O=S(=O)(C1CC1)n1cc(-c2nccc(Nc3cc(N[C@H]4CC[C@@H](O)CC4)c(-c4ccn(C(F)F)n4)cn3)n2)cn1 [Example 80, (1s,4s)-4-((2-((2-(1-(Cyclopropylsulfonyl)-1H-pyrazol-4-yl)pyrimidin-4-yl)amino)-5-(1-(difluoromethyl)-1H-pyrazol-3-yl)pyridin-4-yl)amino)cyclohexan-1-ol] |  |  |  |  | 
4.8 | 3.4 | 1240 | 1.1 | 1.2 |  |  |  |  |  | O=S(=O)(C1CC1)n1cc(-c2nccc(Nc3cc(N[C@H]4CC[C@@H](O)CC4)c(-c4csc(C(F)(F)F)n4)cn3)n2)cn1 [Example 81, (1s,4s)-4-((2-((2-(1-(Cyclopropylsulfonyl)-1H-pyrazol-4-yl)pyrimidin-4-yl)amino)-5-(2-(trifluoromethyl)thiazol-4-yl)pyridin-4-yl)amino)cyclohexan-1-ol] |  |  |  |  | 
 |  |  |  |  |  |  |  |  |  | CC(C)n1ccc(-c2cnc(Nc3ccnc(-c4cnn(S(=O)(=O)C5CC5)c4)n3)cc2N[C@H]2CC[C@@H](O)CC2)n1 [Example 82, (1s,4s)-4-((2-((2-(1-(Cyclopropylsulfonyl)-1H-pyrazol-4-yl)pyrimidin-4-yl)amino)-5-(1-isopropyl-1H-pyrazol-3-yl)pyridin-4-yl)amino)cyclohexan-1-ol] | 3.9 | 2.1 | 2410 | 1.7 | 1.8
18 | 1.9 | > 10000 | 0.6 | 0.7 | 0.7 | 0.8 | 8.6 | 0.3 | 0.3 | O=S(=O)(C1CC1)n1cc(-c2nccc(Nc3cc(N[C@H]4CC[C@@H](O)CC4)c(-c4ccco4)cn3)n2)cn1 [Example 83, (1s,4s)-4-((2-((2-(1-(Cyclopropylsulfonyl)-1H-pyrazol-4-yl)pyrimidin-4-yl)amino)-5-(furan-2-yl)pyridin-4-yl)amino)cyclohexan-1-ol] |  |  |  |  | 
 |  |  |  |  |  |  |  |  |  | CN[C@H]1CC[C@@H](Nc2cc(Nc3ccnc(-c4cnn(S(=O)(=O)C5CC5)c4)n3)ncc2-c2ccn(C(C)C)n2)CC1 [Example 86, N^2-(2-(1-(Cyclopropylsulfonyl)-1H-pyrazol-4-yl)pyrimidin-4-yl)-5-(1-isopropyl-1H-pyrazol-3-yl)-N^4-((1s,4s)-4-(methylamino)cyclohexyl)pyridine-2,4-diamine] | 14.8 | 3.2 | 8510 | 0.2 | 0.3
31.4 | 6.9 | > 10000 | 0.2 | 0.7 |  |  |  |  |  | CN[C@H]1CC[C@@H](Nc2cc(Nc3ccnc(-c4cnn(S(=O)(=O)C5CC5)c4)n3)ncc2-c2ccco2)CC1 [Example 87, N^2-(2-(1-(Cyclopropylsulfonyl)-1H-pyrazol-4-yl)pyrimidin-4-yl)-5-(furan-2-yl)-N^4-((1s,4s)-4-(methylamino)cyclohexyl)pyridine-2,4-diamine] |  |  |  |  | 
232 | 82.5 | > 10000 | 1.3 | 3.8 |  |  |  |  |  | Cc1ncc(-c2cnc(Nc3ccnc(-c4cnn(S(=O)(=O)C5CC5)c4)n3)cc2N2CCC(O)CC2)s1 [Example 89, 1-(2-((2-(1-Cyclopropylsulfonylpyrazol-4-yl)pyrimidin-4-yl)amino)-5-(2-methylthiazol-5-yl)-4-pyridyl)piperidin-4-ol] |  |  |  |  | 
1490 | 367 | > 10000 | 2.6 | 7.1 |  |  |  |  |  | CC(C)(CO)CNc1cc(Nc2ccnc(-c3cnn(S(=O)(=O)C4CC4)c3)n2)ncc1-c1csc(C(C)(C)O)n1 [Example 90, 3-((2-((2-(1-(Cyclopropylsulfonyl)-1H-pyrazol-4-yl)pyrimidin-4-yl)amino)-5-(2-(2-hydroxypropan-2-yl)thiazol-4-yl)pyridin-4-yl)amino)-2,2-dimethylpropan-1-ol] |  |  |  |  | 
8.7 | 0.8 | > 10000 | 1 | 2.3 |  |  |  |  |  | CC(C)(O)c1nc(-c2cnc(Nc3ccnc(-c4cnn(S(=O)(=O)C5CC5)c4)n3)cc2N[C@H]2CCC[C@H](O)C2)cs1 [Example 91, (1S,3S)-3-((2-((2-(1-(Cyclopropylsulfonyl)-1H-pyrazol-4-yl)pyrimidin-4-yl)amino)-5-(2-(2-hydroxypropan-2-yl)thiazol-4-yl)pyridin-4-yl)amino) cyclohexan-1-ol] |  |  |  |  | 
103 | 10 | > 10000 | 2.6 | 7.7 |  |  |  |  |  | CC(C)Nc1cc(Nc2ccnc(-c3cnn(S(=O)(=O)C4CC4)c3)n2)ncc1-c1csc(C(C)(C)O)n1 [Example 92, 2-(4-(6-((2-(1-(Cyclopropylsulfonyl)-1H-pyrazol-4-yl)pyrimidin-4-yl)amino)-4-(isopropylamino)pyridin-3-yl)thiazol-2-yl)propan-2-ol] |  |  |  |  | 
 |  |  |  |  |  |  |  |  |  | Cn1ccc(-c2cnc(Nc3ccnc(-c4cnn(S(=O)(=O)C5CC5)c4)n3)cc2N[C@H]2CC[C@](O)(C(F)(F)F)CC2)n1 [Example 94, (1s,4s)-4-((2-((2-(1-(Cyclopropylsulfonyl)-1H-pyrazol-4-yl)pyrimidin-4-yl)amino)-5-(1-methyl-1H-pyrazol-3-yl)pyridin-4-yl)amino)-1-(trifluoromethyl)cyclohexan-1-ol] | 58.1 | 54.1 | > 10000 | 3.4 | 4
45.2 | 57.7 | > 10000 | 1.3 | 1.9 |  |  |  |  |  | CC(O)C(C)(C)Nc1cc(Nc2ccnc(-c3cnn(S(=O)(=O)C4CC4)c3)n2)ncc1-c1ccn(C)n1 (stereo not shown) [Example 95, 3-((2-((2-(1-(Cyclopropylsulfonyl)-1H-pyrazol-4-yl)pyrimidin-4-yl)amino)-5-(1-methyl-1H-pyrazol-3-yl)pyridin-4-yl)amino)-3-methylbutan-2-ol] |  |  |  |  | 
690 | 159 | > 10000 | 3.5 | 6.2 | 22.7 | 89.1 | 418 | 2.7 | 2 | O=S(=O)(C1CC1)n1cc(-c2nccc(Nc3cc(N[C@@H]4CCC[C@H](O)C4)c(-c4csc(C(F)(F)F)n4)cn3)n2)cn1 [Example 96, (1S,3R)-3-((2-((2-(1-(Cyclopropylsulfonyl)-1H-pyrazol-4-yl)pyrimidin-4-yl)amino)-5-(2-(trifluoromethyl)thiazol-4-yl)pyridin-4-yl)amino)cyclohexan-1-ol] |  |  |  |  | 
160 | 18 | > 10000 | 0.7 | 3.2 |  |  |  |  |  | O=S(=O)(C1CC1)n1cc(-c2nccc(Nc3cc(NC4CCC(NCCO)CC4)c(-c4csc(C(F)(F)F)n4)cn3)n2)cn1 (stereo not shown) [Example 97, 2-((4-((2-((2-(1-(Cyclopropylsulfonyl)-1H-pyrazol-4-yl)pyrimidin-4-yl)amino)-5-(2-(trifluoromethyl)thiazol-4-yl)pyridin-4-yl)amino)cyclohexyl)amino)ethan-1-ol] |  |  |  |  | 
7.7 | 1.9 | 1410 | 0.7 | 2.7 |  |  |  |  |  | CN(C)CCNC1CCC(Nc2cc(Nc3ccnc(-c4cnn(S(=O)(=O)C5CC5)c4)n3)ncc2-c2csc(C(F)(F)F)n2)CC1 (stereo not shown) [Example 98, N^2-(2-(1-(Cyclopropylsulfonyl)-1H-pyrazol-4-yl)pyrimidin-4-yl)-N^4-(4-((2-(dimethylamino)ethyl)amino)cyclohexyl)-5-(2-(trifluoromethyl)thiazol-4-yl)pyridine-2,4-diamine] |  |  |  |  | 

SMILES | IC50 (EGFR L858R/C797S; [1]) [nM] | IC50 (EGFR del19/C797S; [2]) [nM] | IC50 (EGFR wildtype (WT); [3]) [nM] | IC50 (EGFR del19/T790M/C797S; [4]) [nM] | IC50 (EGFR L858R/T790M/C797S; [5]) [nM] | IC50 (EGFR L858R/C797S; [11]) [nM] | IC50 (EGFR del19/C797S; [12]) [nM] | IC50 (EGFR wildtype (WT); [13]) [nM] | IC50 (EGFR del19/T790M/C797S; [14]) [nM] | IC50 (EGFR L858R/T790M/C797S; [15]) [nM] | IC50 (EGFR L858R/C797S; [6]) [nM] | IC50 (EGFR del19/C797S; [7]) [nM] | IC50 (EGFR wildtype (WT); [8]) [nM] | IC50 (EGFR del19/T790M/C797S; [9]) [nM] | IC50 (EGFR L858R/T790M/C797S; [10]) [nM]
CN[C@H]1CC[C@@H](Nc2cc(Nc3ccnc(-c4cnn(S(=O)(=O)C5CC5)c4)n3)ncc2-c2ccn(C)n2)CC1 [Example 88, N^2-(2-(1-(Cyclopropylsulfonyl)-1H-pyrazol-4-yl)pyrimidin-4-yl)-5-(1-methyl-1H-pyrazol-3-yl)-N^4-((1s,4s)-4-(methylamino)cyclohexyl)pyridine-2,4-diamine] |  |  |  |  |  | 0.3 | 0.5 | 3.2 | 0.2 | 0.1 | 3.1 | 1 | 1980 | 0.3 | 0.3
